Experimental data reported in patent publication US4290952A, “Aryl-1-mercaptoalkanoylproline and homoproline derivatives” (American Home Products Corporation, priority 1980, dated 1981).

Assays:
[1] = test system: angiotensin converting enzyme; experiment: In vivo inhibition of angiotensin converting enzyme: blood pressure responses to i.v. angiotensin I in conscious normotensive rat after oral dosing; details: 10 mg/kg, 10 minutes post dosing, mean two animals
Method: The in vitro experiments were confirmed following the procedure of Rubin et al, J. Pharmacol. Exp. Ther 204 721 (1978) whereby jugular vein and carotid artery cannulae are placed in an ether anesthetized, normotensive,male, Spraque-Dawley rat for injection of compounds and direct recording of systemic arterial pressure, respectively. The blood pressure responses in the conscious animal to i.v. injections of angiotensin I (300 ng/kg), angiotensin II (100 ng/kg) and bradykinin (10 μg/kg) are recorded and compared with identical doses administered at various time intervals after oral dosing of the angiotensin converting enzyme inhibitor of this invention.

[2] = test system: male spontaneously hypertensive rats; experiment: Blood pressure lowering in spontaneously hypertensive rats (systolic pressure, caudal plethysmograph); type: in vivo, rat
Method: In addition, the blood pressure lowering ability of the compounds of this invention was established by measuring the systolic pressure of male spontaneously hypertensive rats with a Decker Caudal Plethysmograph. The compounds tested were administered orally and blood pressure was read prior to and at 1.5, 4 and 24 hours after drug administration.

[3] = biological target: T1, angiotensin converting enzyme (Oryctolagus cuniculus, UniProt P12822); experiment: Inhibition of hippuryl-L-histidyl-L-leucine hydrolysis by angiotensin converting enzyme, in vitro; type: biochemical, rabbit
T1 construct: A crude angiotensin converting enzyme supernatant is obtained by blending 1 gm. of rabbit lung acetone powder; tissue Pel-Freez Biologicals; host or cells: rabbit lung (acetone powder; crude 40,000 xg supernatant)
T1 sequence (P12822 34-1310): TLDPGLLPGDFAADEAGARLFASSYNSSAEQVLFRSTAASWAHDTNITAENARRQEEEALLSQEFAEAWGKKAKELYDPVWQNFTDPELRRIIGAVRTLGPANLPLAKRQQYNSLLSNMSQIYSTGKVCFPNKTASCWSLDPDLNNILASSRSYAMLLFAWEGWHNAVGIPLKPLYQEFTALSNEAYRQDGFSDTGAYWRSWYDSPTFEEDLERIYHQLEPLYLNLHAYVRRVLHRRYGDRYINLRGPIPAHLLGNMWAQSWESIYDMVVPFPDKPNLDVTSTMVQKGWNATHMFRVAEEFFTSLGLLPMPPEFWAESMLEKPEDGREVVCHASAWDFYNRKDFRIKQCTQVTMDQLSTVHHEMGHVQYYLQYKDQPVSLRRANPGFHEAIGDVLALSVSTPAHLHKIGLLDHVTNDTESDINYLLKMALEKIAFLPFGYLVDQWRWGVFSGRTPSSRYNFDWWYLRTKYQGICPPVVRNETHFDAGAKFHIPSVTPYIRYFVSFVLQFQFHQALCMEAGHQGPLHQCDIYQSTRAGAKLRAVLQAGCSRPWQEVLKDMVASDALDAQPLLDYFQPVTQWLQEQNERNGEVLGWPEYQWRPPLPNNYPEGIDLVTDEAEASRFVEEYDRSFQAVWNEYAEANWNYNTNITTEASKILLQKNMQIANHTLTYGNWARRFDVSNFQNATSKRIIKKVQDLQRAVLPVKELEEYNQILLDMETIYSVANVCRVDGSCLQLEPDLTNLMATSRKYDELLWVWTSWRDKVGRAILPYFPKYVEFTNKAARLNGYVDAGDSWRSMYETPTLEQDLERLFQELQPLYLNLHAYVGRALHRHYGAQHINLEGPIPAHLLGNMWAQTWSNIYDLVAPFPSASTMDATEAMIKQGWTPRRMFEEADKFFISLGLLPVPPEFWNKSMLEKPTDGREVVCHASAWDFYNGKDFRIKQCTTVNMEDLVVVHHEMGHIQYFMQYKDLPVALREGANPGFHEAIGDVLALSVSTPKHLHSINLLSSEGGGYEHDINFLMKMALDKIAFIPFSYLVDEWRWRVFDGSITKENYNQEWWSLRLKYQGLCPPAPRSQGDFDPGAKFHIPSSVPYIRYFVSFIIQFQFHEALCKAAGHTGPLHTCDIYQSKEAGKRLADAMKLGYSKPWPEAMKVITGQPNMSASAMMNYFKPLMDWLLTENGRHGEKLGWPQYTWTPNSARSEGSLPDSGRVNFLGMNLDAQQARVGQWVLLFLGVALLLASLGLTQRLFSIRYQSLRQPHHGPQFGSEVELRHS
Method: The activity of the compounds of this invention was established by incubation of hippuryl-L-histidyl-L-leucine at 37° C. with angiotensin converting enzyme by the following procedure:
A crude angiotensin converting enzyme supernatant is obtained by blending 1 gm. of rabbit lung acetone powder (Pel-Freez Biologicals) with 35 ml of 50 mM (buffered) potassium phosphate, pH 8.3 and centrifuging for 45 min. at 40,000 xg.
The specific angiotensin converting enzyme substrate Hippuryl-L-histidyl-L-leucine (HHL--Sigma Chem. Co.) is prepared at 5 mM in 200 mM potassium phosphate buffer containing 757 mM NaCl at pH 8.3.
Incubation for the assay of HHL hydrolysis by angiotensin converting enzyme is carried out in a 37° C. gyrorotary incubator in disposable 13×100 mm tubes. Each 0.25 ml assay mixture contains the following components at the final concentrations: potassium phosphate buffer, 100 mM; NaCl, 300 mM; HHL, 5 mM; and enzyme 0.15 ml (10 mU approx.) added last to initiate the reaction. Zero time controls have 0.25 ml of 2 N HCl added before the enzyme. The timed reactions are terminated with acid at 30 min. similarly and the hippuric acid freed from substrate is extracted into 1.5 ml of ethylacetate by vortex mixing for 15 sec. After 5 min. centrifugation in a clinical centrifuge, a 1.0 ml aliquot of the ethyl acetate layer is transferred to a clean tube. These aliquots are evaporated to dryness by heating (120° C.) in a Temp-Block module heater.
The hippuric acid is resuspended in 1.0 ml of water, the absorbance at 228 nm is determined, and the amount present is calculated from a standard curve. The amount of hippuric acid×1.1 (extraction coefficient)×1.5 (ratio of volumes)×1 μM hippuric acid/[…]×1/30 min.=nM hippuric acid released/min. Enzyme activity in the presence of an inhibitor is compared with control activity, and reported as a percentage inhibition. (Cushman, D. W. and Cheung, H. S., Biochem. Pharmacol. 20 1637 (1971).

inhibition at 0.1 µg/mL ([3]; 100 ng/ml)	inhibition of angiotensin converting enzyme in vitro ([3]; 100 ng/ml)	inhibition of angiotensin converting enzyme in vitro ([3]; 1000 ng/ml)	inhibition at 0.001 µg/mL ([3]; 1 ng/ml)	inhibition at 0.01 µg/mL ([3]; 10 ng/ml)	inhibition at 0.05 µg/mL ([3]; 50 ng/ml)	SMILES	inhibition in vivo [1]	reduction of systolic blood pressure in spontaneously hypertensive rats ([2]; 50 mg/kg oral dose, four hours after administration)	reduction of systolic blood pressure in spontaneously hypertensive rats ([2]; 50 mg/kg orally administered)	reduction of blood pressure in the rat ([2]; 10 mg/kg, oral)
72%						O=C(O)[C@@H]1CC[C@H](c2ccccc2)N1C(=O)CCS (relative stereo) [Example four, cis-1-(3-Mercaptopropanoyl)-5-phenyl proline]	65%	21 millimeters		
40%						COc1ccc([C@H]2CC[C@@H](C(=O)O)N2C(=O)CCS)cc1OC (relative stereo) [Example two, cis-1-(3-Mercaptopropanoyl)-5-(3,4-Dimethoxyphenyl)proline]	72%		23 mmHg	
	3%	17%				CC(CSC(=O)c1ccccc1)C(=O)N1[C@@H](c2ccccc2)CC[C@H]1C(=O)O (single isomer, unassigned) [α-acid of Example 7, 5-Phenyl-1-(3-benzoylthio-2-methyl-1-oxopropyl)proline]				
	84%	99%	20%	40%	75%	CC(CSC(=O)c1ccccc1)C(=O)N1[C@@H](c2ccccc2)CC[C@H]1C(=O)O (single isomer, unassigned) [β-acid of Example 7, 5-Phenyl-1-(3-benzoylthio-2-methyl-1-oxopropyl)proline]				37 mmHg
